Experimental data as given in patent US20150299233A1, “COMPOSITIONS AND METHODS COMPRISING RHENIUM FOR THE TREATMENT OF CANCERS” (Massachusetts Institute of Technology, priority 2014, published 2015).
Like-named read-outs stand apart in the source and are kept apart here.

Columns and labels:
Assay type in all cases: cell-based, human
[1] = system: HeLa cervical adenocarcinoma cells; test: MTT cytotoxicity assay, HeLa cells
U2OS = test: MTT cytotoxicity assay, U2OS cells
[2] = system: cisplatin-sensitive cells (A2780); test: MTT cytotoxicity assay, A2780 cells
[3] = system: DU 145 (prostate carcinoma); test: MTT cytotoxicity assay, DU 145 cells; details: Table 2; cisplatin-resistant cell line; 72 h exposure; read-out: IC50 DU 14S prostate carcinoma
PC-3 = test: Cytotoxicity in the presence of necrostatin-1, PC-3 cells; details: necrostatin-1 60 μM, t test p<0.05
Procedure: In order to determine the cell-killing mechanism of 1 and 2, cytotoxicity studies in the presence of apoptosis and necrosis inhibitors were conducted. […] The possibility that 1 and 2 induce necroptosis was then investigated. Necroptosis is a well-regulated mode of cell death that is different from unregulated necrosis and apoptosis. Unlike unregulated necrosis, which can be induced by H2O2 or heat, necroptosis generally involved the interaction of protein kinases, RIP1 and RIP3, to initiate cell disintegration. This process can be blocked by necrostatin-1, a potent RIP1 kinase inhibitor. To determine whether 1 and 2 induced necroptosis and/or uncontrolled necrosis, cytotoxicity studies were conducted in the presence of necrostatin-1 (60 μM) and IM-54 (10 μM), an inhibitor of H2O2-induced necrosis. […] Therefore, 1- and 2-induced cell death relies on RIP1-RIP3 complex formation and not on the expression levels of the individual protein kinases. RIP1 can also form a cytosolic complex with Fas-associated death domain (FADD) and caspase 8, known as a ripoptosome, to initiate apoptosis (through caspase 8 cleavage).
Cytotoxicity MTT Assay. […] Cells (2×10^3 cells/well) were seeded in a 96-well plate. […] The absorbance of the solution wells was read at 550 nm. Absorbance values were normalized to DMSO-containing control wells and plotted as the concentration of test compound versus % cell viability. […]

A549 cells [4] = test: Intracellular ROS assay (DCFH-DA, flow cytometry); details: for induced ROS production in the presence of necrostatin-1: 20 μM for 12 h with necrostatin-1 60 μM; for intracellular ROS versus untreated control cells: 1, 2, shikonin 20 μM for 12 h, H2O2 1 mM for 1 h
Procedure: Characterization of Necroptotic Features. Having established that necrosome formation is a determinant of 1 and 2 activity, additional studies were performed to understand the cascade of events leading from necrosome formation to cell death. Necrosomes generate abnormally high levels of mitochondrial ROS, leading to ATP depletion and eventual degradation of the mitochondrial membrane potential. With this fact in mind, intracellular ROS production was quantified by flow cytometry using 6-carboxy-2′,7′-dichlorodihydrofluorescein diacetate (DCFH-DA), a well-established ROS indicator.
In FIG. 2: (A) Representative histograms displaying the green fluorescence emitted by DCFH-DA-stained A549 cells (i) and A549 cells treated with 1(20 μM for 12 h) (iii) or 1 (20 μM for 12 h) with nectrostatin-1 (60 μM for 12 h) (ii). (B) Representative histograms displaying the green fluorescence emitted by DCFH-DA-stained A549 cells (i) and A549 cells treated with 2 (20 μM for 12 h) (iii) or 2 (20 μM for 12 h) with nectrostatin-1 (60 μM for 12 h) (ii). (C) Representative histograms displaying the green fluorescence emitted by DCFH-DA-stained A549 cells (i) and A549 cells treated withH2O2 (1mM for 1 h) (iii). (D) Representative histograms displaying the green fluorescence emitted by DCFH-DA-stained A549 cells (i) and A549 cells treated with shikonin (20 μM for 12 h) (iii).
Intracellular ROS Assay. Untreated and treated A549 cells (1.5×10^6 cells/well) grown in six-well plates were incubated with 6-carboxy-2′,7′-dichlorodihydrofluorescein diacetate (20 μM) for 30 min. The cells were then washed with PBS (1 mL x 3), harvested, and analyzed by using a FACSCalibur-HTS flow cytometer (BD Biosciences) (20 000 events per sample were acquired). The FL1 channel was used to assess intracellular ROS levels. Cell populations were analyzed using the FlowJo software (Tree Star).

A549 cells [5] = test: Cell cycle analysis, DNA-flow cytometry; details: 2 μM
Procedure: Cell Cycle Analysis. To gain a more complete understanding of the cellular response evoked, DNA-flow cytometric studies were conducted to determine the effect of 1 and 2 on the cell cycle. A549 cells were treated with 1 or 2 (2 μM), and the cell cycle was determined over the course of 72 h. […] Upon further incubation (72 h), large populations of cell debris were detected (32%), indicative of cell death. […] G1-phase cell cycle arrest followed by immediate cell death is characteristic of programmed necrosis.
Cell Cycle. In order to monitor the cell cycle, flow cytometry studies were carried out. A549 cells (1.5×10^6 cells/well) grown in six-well plates were incubated with and without the test compounds for 24, 48, and 72 h at 37° C. Cells were harvested from adherent cultures by trypsinization and combined with all detached cells from the incubation medium to assess total cell viability. Following centrifugation at 1000 rpm for 5 min, cells were washed with PBS and then fixed with 70% ethanol in PBS. Fixed cells were collected by centrifugation at 2500 rpm for 3 min, washed with PBS, and centrifuged as before. Cellular pellets were resuspended in 50 μg/mL PI (Sigma) in PBS for nucleic acids staining and treated with 100 µg/mL RNaseA (Sigma). DNA content was measured on a FACSCalibur-HTS flow cytometer (BD Biosciences) using laser excitation at 488 nm, and 20 000 events per sample were acquired. Cell cycle profiles were analyzed using the ModFit software.

[6] = Table 1, 72 h exposure, ± standard deviation, read-out: IC50 HeLa cervical adenocarcinoma
[7] = Table A, average of three independent determinations, read-out: IC50 HeLa (cervical)
[8] = Table 1, 72 h exposure, ± standard deviation, read-out: IC50 U2OS bone osteosarcoma
[9] = Table A, average of three independent determinations, read-out: IC50 U2OS (bone)
[10] = Table 1, 72 h exposure, ± standard deviation, read-out: IC50 A2780 ovarian carcinoma
[11] = Table A, average of three independent determinations, read-out: IC50 A2780 (ovarian)

SMILES	IC50 [1, 6] [nM]	IC50 [1, 7] [nM]	IC50 (U2OS; [8]) [nM]	IC50 (U2OS; [9]) [nM]	IC50 [2, 10] [nM]	IC50 [2, 11] [nM]	IC50 [3] [nM]	effect of co-incubation with necrostatin-1 on toxicity, PC-3 (PC-3)	induced ROS production in the presence of necrostatin-1 (A549 cells [4])	intracellular ROS versus untreated control cells (A549 cells [4])	effect on cell cycle after 24 h (A549 cells [5])	population of cell debris, 48 h (A549 cells [5]; 48 h) [%]	population of cell debris, 72 h (A549 cells [5]) [%]	effect on cell cycle after 48 h (A549 cells [5]; 48 h)
C[O][Re-2]1(=[O])([Cl])([Cl])[n+]2cc(C)c(C)c3ccc4c(C)c(C)c[n+]1c4c32 [Compound 2, [ReO(OMe)(3,4,7,8-tetramethyl-1,10-phenanthroline)Cl2]]	695 ± 21	695 ± 21	209 ± 31	209 ± 31	150 ± 10	150 ± 10	1370 ± 84	markedly decreased the toxicity	attenuated	markedly higher levels of ROS	stalled the cell cycle at the G1 phase	26	38	
C[O][Re](=[O])([Cl])[Cl].c1ccc(-c2ccnc3c2ccc2c(-c4ccccc4)ccnc23)cc1 [Compound 1, [ReO(OMe)(4,7-diphenyl-1,10-phenanthroline)-Cl2]]	445 ± 4	445	274 ± 6	274 ± 6	670 ± 40	670 ± 40	2840 ± 381	markedly decreased the toxicity	attenuated	markedly higher levels of ROS	stalled the cell cycle at the G1 phase		32	remained stalled at the G1 phase
